How the values were obtained:
Experiment in all cases: relative viability (nuclei count vs DMSO), 5 days (fraction); higher = more cells survive
[1] = compound: C1=CC2=NC=CN=C2C=C1/C=C/3\C(=O)NC(=O)S3 + CC(C)C[C@H](NC(=O)[C@H](Cc1ccccc1)NC(=O)c1cnccn1)B(O)O [Bortezomib] (partner 0.002 µM)
In short: (§1)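 Each reported value is a median over duplicate plates. It expresses relative viability: treated-well nuclei count divided by vehicle-well nuclei count. Lung cancer cell lines in 1536-well plates were dosed by pin tool a day after seeding, alone with one drug or with a fixed anchor-drug dose plus five library-drug doses (not always all listed) in √10 steps, and nuclei were counted after 5 days.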

[2] = compound: C1=CC2=NC=CN=C2C=C1/C=C/3\C(=O)NC(=O)S3 + CS(=O)(=O)N1CCN(Cc2cc3nc(-c4cccc5[nH]ncc45)nc(N4CCOCC4)c3s2)CC1 [Pictilisib] (partner 1 µM)
In short: as §1

[3] = compound: C1=CC2=NC=CN=C2C=C1/C=C/3\C(=O)NC(=O)S3 + O=C(c1cc(Cc2n[nH]c(=O)c3ccccc23)ccc1F)N1CCN(C(=O)C2CC2)CC1 [Olaparib] (partner 8 µM)
In short: as §1

[4] = compound: CCN1CCN(c2ccc(Nc3cc(N(C)C(=O)Nc4c(Cl)c(OC)cc(OC)c4Cl)ncn3)cc2)CC1 [BGJ398] + Cc1nc(Nc2ncc(C(=O)Nc3c(C)cccc3Cl)s2)cc(N2CCN(CCO)CC2)n1 [Dasatinib] (partner 0.075 µM)
In short: as §1

Row | Cell Line | relative viability ([1]; first compound 0.02 µM) | relative viability ([1]; first compound 0.06325 µM) | relative viability ([1]; first compound 0.2 µM) | relative viability ([1]; first compound 0.6325 µM) | relative viability ([1]; first compound 2 µM) | relative viability ([2]; first compound 0.02 µM) | relative viability ([2]; first compound 0.06325 µM) | relative viability ([2]; first compound 0.2 µM) | relative viability ([2]; first compound 0.6325 µM) | relative viability ([2]; first compound 2 µM) | relative viability ([3]; first compound 0.02 µM) | relative viability ([3]; first compound 0.06325 µM) | relative viability ([3]; first compound 0.2 µM) | relative viability ([3]; first compound 0.6325 µM) | relative viability ([3]; first compound 2 µM) | relative viability ([4]; first compound 0.01 µM) | relative viability ([4]; first compound 0.03162 µM) | relative viability ([4]; first compound 0.1 µM) | relative viability ([4]; first compound 0.3162 µM) | relative viability ([4]; first compound 1 µM)
1 | NCI-H647 | 1.1 | 1.16 | 1.11 | 0.72 | 0.951 | 0.546 | 0.483 | 0.624 | 0.368 | 0.271 | 0.438 | 0.532 | 0.537 | 0.51 | 0.496 | 0.164 | 0.188 | 0.178 | 0.178 | 0.0946
2 | NCI-H650 | 0.977 | 0.775 | 0.907 | 0.78 | 0.379 | 0.816 | 0.829 | 0.917 | 0.868 | 0.783 | 0.422 | 0.397 | 0.466 | 0.444 | 0.267 | 0.414 | 0.515 | 0.526 | 0.45 | 0.401
3 | NCI-H661 | 0.925 | 0.614 | 0.812 | 0.751 | 0.95 | 0.392 | 0.436 | 0.513 | 0.378 | 0.329 | 0.682 | 0.733 | 0.733 | 0.746 | 0.715 | 0.835 | 0.854 | 0.897 | 0.79 | 0.746
4 | NCI-H727 | 0.777 | 0.828 | 0.795 | 0.833 | 0.475 | 0.432 | 0.394 | 0.367 | 0.328 | 0.198 | 0.852 | 0.579 | 0.637 | 0.695 | 0.538 | 0.462 | 0.337 | 0.316 | 0.384 | 0.447
5 | NCI-H838 | 0.711 | 0.908 | 0.878 | 0.595 | 0.684 | 0.395 | 0.446 | 0.429 | 0.369 | 0.322 | 0.731 | 0.872 | 0.795 | 0.71 | 0.636 | 0.278 | 0.337 | 0.28 | 0.257 | 0.225
6 | NCI-H1355 | 1.02 | 1.23 | 1.18 | 1.2 | 1.05 | 0.274 | 0.411 | 0.499 | 0.459 | 0.364 | 0.656 | 0.766 | 0.77 | 0.699 | 0.726 | 0.658 | 0.713 | 0.74 | 0.735 | 0.507
7 | NCI-H1437 | 0.475 | 0.647 | 0.564 | 0.475 | 0.408 | 0.441 | 0.482 | 0.434 | 0.347 | 0.317 | 0.584 | 0.648 | 0.623 | 0.643 | 0.653 | 0.484 | 0.444 | 0.373 | 0.42 | 0.424
8 | NCI-H1650 | 0.207 | 0.173 | 0.219 | 0.201 | 0.213 | 0.562 | 0.531 | 0.594 | 0.553 | 0.656 | 0.689 | 0.825 | 0.845 | 0.735 | 0.927 | 0.31 |  | 0.205 | 0.163 | 0.17
